These results are taken from a melting point compilation (Tetko et al.; mined from patent text by program, amines drawn as free bases though some values may be those of a salt).

For orientation: melting point means the temperature, or range, at which the solid turns liquid.

Each structure is given as a SMILES string.

On to `Cc1coc(C)c1N(C)c1cc(C(=O)N(C)C)cc2c1nc(C)n2C`, for which the melting point fell in the range of 163 to 164 °C.

For the compound `CCOC(=O)c1ccc(NCCOc2ccc(F)cc2)cc1`, the melting point is 122 to 123 °C.

Take `COC(=O)CCCCCCc1ncsc1C=O`: the melting point was 60 to 62 °C.

In turn, `O=C(O)c1coc2ccc(OCc3ccccc3)cc2c1=O` displayed a melting point of 170 to 173 °C.

`Cc1cccc(C)c1NC(N)=NN`: the melting point was 192 to 193 °C.

For the compound `COc1nc2cc(C)c(C)c(NS(C)(=O)=O)c2nc1OC`, the melting point came out at 219 °C.

Turning to `Cc1cc(C2(C(F)(F)F)CC(c3ccc(C(N)=O)cc3)=NO2)ccc1NC(=O)c1cccc(I)c1C(=O)NC(C)C` (configuration not stated), the melting point lay in the range of 173 to 175 °C.

Turning to `O=[N+]([O-])c1cc(NCCO)ccc1NCC(F)(F)F`, the melting point lay within 93 to 95 °C.

Turning to `COC(=O)N[C@H](C(=O)NC(Cc1ccccc1)C(O)CNCC(O)[C@@H](Cc1ccc(OCCc2ccccn2)cc1)NC(=O)OC(C)(C)C)C(C)(C)C` (relative stereo), the melting point lay within 139 to 141 °C.

Compound `CCc1csc(NC(=O)Nc2ccc(N3CCN(C(=O)Nc4ccc(OCCO)cc4C(F)(F)F)CC3)cc2)n1` showed a melting point of 124 to 125 °C.

`COc1cccc2c(=O)c(C(N)=O)c(N)oc12` gave a melting point of 302 °C.

`CC(C)(C)c1cc(CCCCCCc2cc(C(C)(C)C)c(O)c(C(C)(C)C)c2)cc(C(C)(C)C)c1O` came in with a melting point of 147 to 149 °C.

Consider `N#CN=C(Cc1ccc2c(c1)Nc1nccnc1S2)NCCCC(=O)O`, for which the melting point lay within 217 to 218 °C.

In turn, `COc1ccc(-c2c(O)c3ccc(Cl)cc3[nH]c2=O)cc1` had a melting point above 350 °C.

Compound `O=C1N[C@H](CCl)[C@@H]1N1C(=O)c2ccccc2C1=O` (relative stereo) showed a melting point of 172 °C.

As to `NC1CSC(c2ccsc2)CNC1=O` (configuration not stated), the melting point was in the range of 190 to 191 °C.

`O=S(=O)(NCCc1ccncc1)c1ccc(Br)s1` came in with a melting point of 133 to 134 °C.

`O=C(O)CCN(CCCOc1ccc(C(=O)O)cc1)c1ccc(Cl)cc1` gave a melting point of 132 to 133 °C.

As to `N#Cc1[nH]c2ccc(Cl)cc2c1-c1ccccc1`, the melting point was in the range of 115 to 117 °C.

Turning to `CS(=O)(=O)N1CCS(=O)c2cccc(Cl)c2C1` (configuration not stated), the melting point is 167 to 169 °C.

`CN1C(=O)CC[C@]2(C)c3ccc(Sc4ccc5c([N+](=O)[O-])cccc5n4)cc3CC[C@@H]12` came in with a melting point of 149 to 154 °C.

`CC(C#Cc1ccc(Cl)cc1)N(O)C(N)=O` (configuration not stated) displayed a melting point of 159 to 161 °C.

The compound `COc1ccc(CNC(=O)[C@@H](NC(=O)[C@H](NCc2cccc3ccccc23)[C@H](O)[C@H](Cc2ccccc2)NC(=O)OC(C)(C)C)C(C)C)c(O)c1` yielded a melting point of 95 to 98 °C.

For the compound `Cc1cc2cccc(OS(=O)(=O)C(F)(F)F)c2nc1-c1ccccc1`, the melting point was determined as 85 °C.

The compound `CNC(=O)Nc1ccc(Cc2cc(C)c(C(=O)c3ccc(Cl)cc3)n2C)nc1` returned a melting point of 234 to 236 °C.

In turn, `COc1c(Cl)ccc(-c2cc(N)c(Cl)c(C(=O)N(C)OC)n2)c1F` returned a melting point of 159 to 162 °C.

Regarding `O=C1N(Cc2ccccc2C(F)(F)F)c2ccccc2C12COc1cc3[nH]ncc3cc12` (configuration not stated), the melting point was 124 to 126 °C.

For `CC(C)Nc1cccnc1N1CCN(C(=O)c2ccc(C(=O)NCCCn3ccnc3)cn2)CC1`, the melting point lay within 105 to 108 °C.

The compound `COC=C(C(=O)OC)c1c(OC)ncnc1Oc1cccc(COc2ccccc2C#N)c1` yielded a melting point of 132 to 135 °C.

For the compound `CCn1cc(C(=O)O)c(=O)c2cc(Cl)c(N(C)C)cc21`, the melting point came to 210 °C.

Compound `COc1cnc(CCCOc2cccc(CN3CCCC3)c2)[nH]c1=O` had a melting point of 92 to 95 °C.

Compound `CC(C)CCSC1CC(CO)OC1n1ccc(=O)[nH]c1=O` (configuration not stated) registered a melting point of 131 to 133 °C.

Consider `C=CCOc1ccccc1[N+](=O)[O-]`, for which the melting point lay in the range of 70 to 72 °C.

Compound `CSc1ccc(C(CC2CCCC2)C(=O)O)cc1C(F)(F)F` (configuration not stated) yielded a melting point of 105 to 106 °C.

`CC(C)(CC(=O)Oc1ccccc1C(C)(C)C)NS(=O)(=O)C(F)(F)F` showed a melting point of 69 to 71 °C.

The compound `CCOC(=O)c1c(CCl)nc2sc(C)c(C)c2c1-c1ccc(OC)c(OC)c1` had a melting point of 162 to 163 °C.

Compound `CCCCN1C(=O)C(=O)C(C)=C(C#N)C1=O` gave a melting point of 134 to 135 °C.

In turn, `COc1ccc(NN=C(Sc2ccc(Cl)cc2)C(C)=O)cc1` came in with a melting point of 112 to 114 °C.

`O=C(O)c1ccc(COCc2csc3nc(C(=O)NCc4ccc(F)c(Br)c4)[nH]c(=O)c23)cc1`: the melting point fell in the range of 231 to 233 °C.

Compound `C[C@@H](N(CC(=O)O)C(=O)c1ccc(OCC(F)(F)F)cc1)[C@](O)(Cn1cncn1)c1ccc(F)cc1F` (relative stereo) yielded a melting point of 168 to 177 °C.

As to `COc1ccc2c(c1)cc(C=O)n2S(=O)(=O)c1ccccc1`, the melting point is 123 to 124 °C.

Turning to `O=C(Nc1ccccc1)c1cccc([N+](=O)[O-])c1C(=O)Nc1ccccc1`, the melting point was 139 to 141 °C.

As for `COc1cc(N(C)C)ccc1-c1nc2c(N[C@H]3[C@@H](C(N)=O)[C@@H]4C=C[C@H]3C4)ccnc2[nH]1`, the melting point was 185 to 190 °C.

The compound `Cc1cc2c(c(S(N)(=O)=O)n1)C(=O)OC2` registered a melting point of 211 to 213 °C.

Take `COc1ccc(C=CC(=O)C(CCC(=O)O)(Cc2ccccc2Cl)c2ccccc2)cc1` (configuration not stated): the melting point lay in the range of 152 to 157 °C.

On to `CNc1ccc2cccc(OCCOc3nccnc3N3CCNCC3)c2n1`, for which the melting point lay within 54 to 56.5 °C.

In turn, `Cc1c(N2CCc3c(-c4ccccc4)cccc32)nc2ccc(F)cc2c1C(=O)O` came in with a melting point of 157 to 159 °C.

The compound `CC1NC(=O)NN=C1c1ccc(NC(=O)CN2CCOCC2)cc1` (configuration not stated) came in with a melting point of 244 to 247 °C.

For the compound `CCCOc1ccccc1-c1nc(CO)c[nH]1`, the melting point fell in the range of 90 to 92 °C.

`CCOC(=O)Cc1nc(-c2ccc(Cl)cc2)oc1Oc1cc(C)ccc1C` showed a melting point of 122 to 124 °C.

`O=c1c(Cc2ccccc2)coc2cc(OS(=O)(=O)C(F)(F)F)ccc12` showed a melting point of 56 to 58 °C.

In the case of `CC(C)(O)CCn1c(=O)n(C(=O)N[C@H](C(N)=O)C(C)(C)C)c2ccccc21`, the melting point was 248 °C.

In the case of `Fc1ccc(Cn2cnc3c(-c4ccco4)ncnc32)cc1`, the melting point is 162 to 164 °C.

In turn, `Oc1ccccc1-c1ccnc(-c2ccccc2)n1` had a melting point of 195 to 198 °C.

On to `Cc1sc2ncc(C(O)CCCc3ccccc3)n2c1C` (configuration not stated), for which the melting point fell in the range of 167 to 169 °C.

On to `Cc1nc(S(=O)(=O)n2ccc(/C=C/C(=O)NO)c2)cn1C`, for which the melting point lay within 190 to 194 °C.

Take `CCc1cccc(CSC)c1NC(=O)CC1c2ccccc2Oc2ccccc21`: the melting point lay within 122 to 123 °C.

`Cn1ncnc1-c1ccc(C(=O)N2Cc3cccn3Cc3ccccc32)cc1` had a melting point of 155 to 158 °C.

Take `Cc1cnc2n1-c1sc(CCCO)cc1C(c1ccccc1Cl)=NC2`: the melting point was 131 to 134 °C.

`COc1ccc(Oc2cnccc2N)c2ccccc12` showed a melting point of 126 to 129 °C.

Regarding `COc1ccc(S(=O)(=O)NCc2ccco2)c2cc(C(C)=O)oc12`, the melting point was 182 to 184 °C.

Compound `Cc1c(Cc2cccnc2)c2ccccc2n1CCc1nnn[nH]1` registered a melting point of 173 °C.

On to `CC(=O)COc1cc2oc(=O)cc(C)c2cc1C`, for which the melting point was found to be 190 °C.

Regarding `O=C1NC(Cc2ccncc2)(Cc2ccncc2)C(=O)N1C12CC3CC(CC(C3)C1)C2`, the melting point was in the range of 284 to 286 °C.

`CCCc1nsc(NC(=O)NC)c1C(=O)OCC` came in with a melting point of 173 to 174 °C.

Turning to `C=CCc1cc2c(c(CC=C)c1O)CCC(=O)N2c1ccc(OC)cc1`, the melting point is 154 °C.

On to `CC(C)N(C(=O)Cn1cncn1)c1ccccc1`, for which the melting point stood at 125 °C.

Turning to `CC1CCN(c2ccccc2C(C)C(C(N)=O)c2ccc(C(=O)O)cc2)CC1` (configuration not stated), the melting point is 173 to 175 °C.

With `CC(C)(C)C1=C(CO)N=NC1=O`, the melting point is 169 to 172 °C.

`Oc1cc2c3cc(O)c(O)cc3n(Cc3ccccc3)c2cc1O` displayed a melting point of 266 to 271 °C.

Compound `C[C@@H]1N(C)C(C)(C)CO[C@@]1(O)c1ccc(Cl)cc1` had a melting point of 167 to 169 °C.

As for `Cc1cc(CCCCCOc2c(Cl)cc(C3=NCCO3)cc2Cl)sn1`, the melting point was 38 to 39.5 °C.

As for `COc1ccc(Br)cc1-c1nc2ccc(OC(F)(F)F)cc2[nH]1`, the melting point was in the range of 175 to 178 °C.

The compound `O=C1CCc2c(Cl)sc(Cl)c21` showed a melting point of 168 to 170 °C.

Turning to `CC1CCCC(C)N1Cc1ccc2cc(NC(=O)c3ccc(-c4ccc(Cl)cc4)cc3)ccc2c1` (configuration not stated), the melting point lay in the range of 220 to 222 °C.

Regarding `CCC(=O)Nc1n[nH]c(C(C)(C)C)c1Cl`, the melting point fell in the range of 136 to 137 °C.

For `COc1ccc2c(c1)[C@@H](O)[C@H](Br)CO2` (relative stereo), the melting point lay in the range of 67 to 72 °C.

In turn, `CCC(C)(O)CCCCc1cccc(CCc2ccc(O)c(CO)c2)c1` (configuration not stated) displayed a melting point of 101 to 104 °C.

Regarding `COc1ccnc2c1C(=O)CC(c1ccccc1)C2` (configuration not stated), the melting point lay within 130 to 131 °C.

For `CCOC(=O)Cc1ccc(OCc2ccccc2)c2c1OCCO2`, the melting point came out at 86 °C.

The compound `COc1ccc(-n2nc(C(F)(F)F)cc2OCN2C(=O)c3c(C(C)C)cc(OC)cc3S2(=O)=O)cc1` returned a melting point of 111 to 113 °C.

The compound `C/C=C/c1nnc(N2N=C(c3ccc([N+](=O)[O-])c(C)c3)c3cc4c(cc3C[C@H]2C)OCO4)s1` came in with a melting point of 232 to 237 °C.

In turn, `Cc1ccc(-c2cc(C)cn2-c2ccc(S(N)(=O)=O)cc2)cc1` gave a melting point of 175 to 176 °C.

Compound `O=C(NCCCCCCNC(=O)c1ccc2c(c1)OCO2)c1ccc2c(c1)OCO2` gave a melting point of 183 to 185 °C.

`Cc1cc(-c2cc(C(F)(F)F)n3ncc(-c4nc(-c5ccc(S(N)(=O)=O)s5)no4)c3n2)ccc1C(F)(F)F` showed a melting point of 324 °C.

Turning to `CC(=O)CCc1cc(F)c2ncc(C(=O)NCc3ccc(Cl)cc3)c(O)c2c1`, the melting point fell in the range of 218 to 222 °C.

The compound `COc1cc2c(cc1OC)CN(CCCOc1ccc(NC(=O)c3nc4cc(C)c(C)cc4nc3OC)cc1)CC2` had a melting point of 158 °C.
